From ChEMBL document CHEMBL1201862, “PubChem BioAssay data set” (2004)
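Step 1: Grow cells in 96-well plates. Step 2: Expose to compound for 48 hours at 5 concentrations. Step 3: Interpolate endpoints linearly; if unreached, use highest concentration. GI50 marks 50% less growth.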 Active and inactive are the calls of the source. Rule as the data show it: active = GI50 up to about 1.1 µM and inactive = higher.

Key:
Test in all cases: NCI tumour cell line growth inhibition, 48 h
A549 = test system: A549
NCI-H522 = test system: NCI-H522
SF-295 = test system: SF-295
RXF 393 = test system: RXF 393
KM12 = test system: KM12
SNB-75 = test system: SNB-75
OVCAR-8 = test system: OVCAR-8
ACHN = test system: ACHN
MDA-MB-435 = test system: MDA-MB-435
NCI-H226 = test system: NCI-H226
Malme-3M = test system: Malme-3M
CCRF-CEM = test system: CCRF-CEM
MOLT-4 = test system: MOLT-4
MDA-MB-231 = test system: MDA-MB-231
U-251 = test system: U-251
SK-MEL-5 = test system: SK-MEL-5
HCT-116 = test system: HCT-116
HOP-62 = test system: HOP-62
A498 = test system: A498
DU-145 = test system: DU-145

Structure (SMILES)	GI50 (A549)	GI50 (NCI-H522)	GI50 (SF-295)	GI50 (RXF 393)	GI50 (KM12)	GI50 (SNB-75)	GI50 (OVCAR-8)	GI50 (ACHN)	GI50 (MDA-MB-435)	GI50 (NCI-H226)	GI50 (Malme-3M)	GI50 (CCRF-CEM)	GI50 (MOLT-4)	GI50 (MDA-MB-231)	GI50 (U-251)	GI50 (SK-MEL-5)	GI50 (HCT-116)	GI50 (HOP-62)	GI50 (A498)	GI50 (DU-145)
Cc1cc2nc3n(c2cc1C)C(c1c(F)cccc1F)SC3 (stereo not drawn)	23.7 µM (inactive)	21.3 µM (inactive)	22.3 µM (inactive)	20.8 µM (inactive)	> 10 µM (inactive)	11.6 µM (inactive)	33.3 µM (inactive)	17.4 µM (inactive)	14.2 µM (inactive)	10.5 µM (inactive)	20.8 µM (inactive)	19.4 µM (inactive)	13.7 µM (inactive)	17.9 µM (inactive)	16.1 µM (inactive)	11 µM (inactive)	14.1 µM (inactive)	23.9 µM (inactive)		
CN1C(=O)C(=O)N2c3ccc(Cl)cc3C3(c4ccccc4)N=CC12O3 (stereo not drawn)	10.8 µM (inactive)	2.4 µM (inactive)	11.1 µM (inactive)	1.9 µM (inactive)	3.55 µM (inactive)	3.6 µM (inactive)	3.13 µM (inactive)	4.7 µM (inactive)		10.1 µM (inactive)	20 µM (inactive)	3.03 µM (inactive)	3.07 µM (inactive)		9.48 µM (inactive)	5.52 µM (inactive)	3.9 µM (inactive)	15 µM (inactive)	10.8 µM (inactive)	
Cc1ccc2nc(-c3ccc(N4C(=O)C(Cl)C4c4ccc(Cl)cc4)cc3)sc2c1 (stereo not drawn)	17.3 µM (inactive)		15.1 µM (inactive)		16.8 µM (inactive)		28.5 µM (inactive)	22.4 µM (inactive)	17.4 µM (inactive)	13.8 µM (inactive)	28.8 µM (inactive)	7.94 µM (inactive)		13.5 µM (inactive)	19.2 µM (inactive)	14.2 µM (inactive)	21.6 µM (inactive)	20.6 µM (inactive)		27.2 µM (inactive)
Cc1ccc(NC(=O)CCC(=O)C(C#N)c2ccc(Cl)cc2)cc1C (stereo not drawn)	> 100 µM (inactive)	> 100 µM (inactive)	> 100 µM (inactive)	> 100 µM (inactive)	> 100 µM (inactive)	> 100 µM (inactive)	> 100 µM (inactive)	> 100 µM (inactive)		> 100 µM (inactive)	> 100 µM (inactive)	> 100 µM (inactive)	> 100 µM (inactive)		> 100 µM (inactive)	> 100 µM (inactive)	> 100 µM (inactive)	> 100 µM (inactive)	> 100 µM (inactive)	
O=c1[nH]cc(C(F)(C(F)(F)F)C(F)(F)F)c(=O)[nH]1	> 100 µM (inactive)	> 100 µM (inactive)	> 100 µM (inactive)	> 100 µM (inactive)	> 100 µM (inactive)	> 100 µM (inactive)	> 100 µM (inactive)	> 100 µM (inactive)		> 100 µM (inactive)	> 100 µM (inactive)	> 100 µM (inactive)	> 100 µM (inactive)		> 100 µM (inactive)	> 100 µM (inactive)	> 100 µM (inactive)	> 100 µM (inactive)	> 100 µM (inactive)	
COc1ccc(Cc2nc3ccccc3s2)cc1OC	23.5 µM (inactive)	17.8 µM (inactive)	15.1 µM (inactive)	19.6 µM (inactive)	17.4 µM (inactive)	18.8 µM (inactive)	16.9 µM (inactive)	16.8 µM (inactive)		21 µM (inactive)	17.1 µM (inactive)	14.8 µM (inactive)	20.2 µM (inactive)		14.6 µM (inactive)	16.1 µM (inactive)	15.8 µM (inactive)	29.6 µM (inactive)	23.7 µM (inactive)	
COc1ccc(-c2c(C#N)c(S)n(NS(=O)(=O)c3ccc(C)cc3)c(=O)c2C#N)cc1	27.5 µM (inactive)	14.8 µM (inactive)	30 µM (inactive)	17.5 µM (inactive)	15.3 µM (inactive)	30.5 µM (inactive)	20.2 µM (inactive)	16.4 µM (inactive)		20 µM (inactive)	24.6 µM (inactive)	4.06 µM (inactive)	7.06 µM (inactive)	17.8 µM (inactive)	29.4 µM (inactive)	13.8 µM (inactive)	14.4 µM (inactive)	29.6 µM (inactive)	30.5 µM (inactive)	
O=[N+]([O-])c1cc([N+](=O)[O-])c(C(Cl)C(Cl)c2ccccc2)cc1C(Cl)C(Cl)c1ccccc1 (stereo not drawn)	2.05 µM (inactive)	1.61 µM (inactive)	2.15 µM (inactive)	1.33 µM (inactive)	1.85 µM (inactive)	2.47 µM (inactive)	1.87 µM (inactive)	1.77 µM (inactive)		2.23 µM (inactive)	1.76 µM (inactive)	2.21 µM (inactive)	2.3 µM (inactive)		1.82 µM (inactive)	1.66 µM (inactive)	1.19 µM (inactive)	3.66 µM (inactive)	1.82 µM (inactive)	
COc1ccc(-c2ncn(C[Si](C)(C)C)c2-c2ccc(OC)cc2)cc1	4.31 µM (inactive)	4.28 µM (inactive)	4.24 µM (inactive)	6.25 µM (inactive)	4.92 µM (inactive)	13.1 µM (inactive)	7.06 µM (inactive)	7.55 µM (inactive)	3.73 µM (inactive)	4.8 µM (inactive)	10.4 µM (inactive)		0.863 µM (active)	12.9 µM (inactive)	6.9 µM (inactive)	2.54 µM (inactive)	2.92 µM (inactive)	12.6 µM (inactive)		
Cc1ccccc1NC(=O)C(=O)CC(=O)c1sc(Nc2ccccc2[N+](=O)[O-])nc1C	34.8 µM (inactive)	27.7 µM (inactive)	22.5 µM (inactive)	26.4 µM (inactive)	47.5 µM (inactive)		43.4 µM (inactive)	20.3 µM (inactive)	29 µM (inactive)	34.8 µM (inactive)			51.1 µM (inactive)	17.3 µM (inactive)	30.3 µM (inactive)	27.8 µM (inactive)	29.7 µM (inactive)	25.2 µM (inactive)		50 µM (inactive)
O=C1NC(=S)NC(=O)C1=C/C=C/c1ccc([N+](=O)[O-])cc1	21.1 µM (inactive)		17.3 µM (inactive)	13.1 µM (inactive)	38 µM (inactive)	19.2 µM (inactive)	22.1 µM (inactive)	18 µM (inactive)	10.4 µM (inactive)	19.1 µM (inactive)	9.66 µM (inactive)	2.32 µM (inactive)	3.04 µM (inactive)	18.2 µM (inactive)	4 µM (inactive)	19.3 µM (inactive)	17.8 µM (inactive)	18.7 µM (inactive)		16.1 µM (inactive)
CC(C)c1cc(OCC(O)CO)cc(C(C)C)c1 (stereo not drawn)	> 100 µM (inactive)	> 100 µM (inactive)	> 100 µM (inactive)	> 100 µM (inactive)	> 100 µM (inactive)	> 100 µM (inactive)	> 100 µM (inactive)	> 100 µM (inactive)		> 100 µM (inactive)	> 100 µM (inactive)	> 100 µM (inactive)	> 100 µM (inactive)		> 100 µM (inactive)	> 100 µM (inactive)	> 100 µM (inactive)	> 100 µM (inactive)	> 100 µM (inactive)	
CCOC(=N)CC(=O)Nc1ccccc1CC	> 100 µM (inactive)	> 100 µM (inactive)	> 100 µM (inactive)	> 100 µM (inactive)	> 100 µM (inactive)	> 100 µM (inactive)	> 100 µM (inactive)	> 100 µM (inactive)		> 100 µM (inactive)	> 100 µM (inactive)	> 100 µM (inactive)	> 100 µM (inactive)		> 100 µM (inactive)	> 100 µM (inactive)	> 100 µM (inactive)	> 100 µM (inactive)	> 100 µM (inactive)	
COc1ccc(O)c(C#N)c1C#N	> 100 µM (inactive)	> 100 µM (inactive)	> 100 µM (inactive)	> 100 µM (inactive)	> 100 µM (inactive)	> 100 µM (inactive)	> 100 µM (inactive)	> 100 µM (inactive)		> 100 µM (inactive)	> 100 µM (inactive)	> 100 µM (inactive)	> 100 µM (inactive)		> 100 µM (inactive)	> 100 µM (inactive)	> 100 µM (inactive)	> 100 µM (inactive)	> 100 µM (inactive)	
CCOC(=O)Cc1nc2ccccc2s1	22.9 µM (inactive)	19.6 µM (inactive)	17.7 µM (inactive)	20.9 µM (inactive)	> 10 µM (inactive)	29.3 µM (inactive)	17.5 µM (inactive)	17.1 µM (inactive)		21.8 µM (inactive)	16.3 µM (inactive)	18.8 µM (inactive)	25.6 µM (inactive)		17 µM (inactive)	20.6 µM (inactive)	18.2 µM (inactive)	22.9 µM (inactive)	18.5 µM (inactive)	
Cc1cc(S(=O)(=O)Nc2nc3cscc3c(=O)n2N)c(S)cc1Cl	28.2 µM (inactive)	32.8 µM (inactive)	37.9 µM (inactive)		39.5 µM (inactive)	15 µM (inactive)	46.2 µM (inactive)	56.2 µM (inactive)	56 µM (inactive)	8.15 µM (inactive)	39.4 µM (inactive)	62.8 µM (inactive)	57.3 µM (inactive)	73.8 µM (inactive)	37.3 µM (inactive)	41 µM (inactive)	36.7 µM (inactive)	49.3 µM (inactive)		40.3 µM (inactive)
